Data published in patent publication US20260240746A1, “TOPICAL COMPOSITION AND IMPLEMENTATIONS THEREOF” (ULTRAMARINE & PIGMENTS LIMITED, priority 2022, published 2026).
Values joined by “and” are separate entries in the source; they are usually repeats but may differ in a detail not shown here. Equal values may be shown once.

Legend:
skin = assay: Moisturization analysis (Scalar moisture checker); format: in vivo, human; details: skin of the hand, 20° C., 60% RH
Method: The topical composition samples of the present disclosure and the commercial silicones (cyclopentasiloxane, dimethicone) were applied on a skin patch and the moisture content was analyzed for a duration of 8 hrs. The test was conducted on 3 volunteers. Three areas were marked on the skin of the hand. The composition was applied by rubbing in a circular direction for a period of two minute on the marked areas. The third area was kept blank. The readings were taken after five minutes of drying by Scaler Moisture Checker. The temperature of the room was kept at 20° C. and humidity was maintained at 60% RH. The moisture analysis was done using moisture checker from Scalar Impressive works. Scalar moisture checker works on the principle of capacitance to measure the permittivity of skin. […] The checker was pressed on the desired area perpendicularly to the skin and was held for a few seconds. […] Moisture level Content of 45.1 and above represent a very high moisture level, when moisture level is between 39.1-45.0 it is high normal, between 27.1-39.0 is mid normal, between 22.1-27.0 is low normal, between 12.1 to 22.0 is low and below 12.1 is very low moisture level. A graph of time after application and the moisture level content was plotted for each composition.

[1] = system: Murine fibroblast cell line (3T3); assay: Skin reactivity analysis by agar diffusion assay; format: cell-based; details: 3T3 cells, 24 hours exposure
Method: Skin reactivity analysis was carried out for the topical composition samples by agar diffusion assay. Murine fibroblast cell line (3T3) cells were seeded onto 60 mm tissue culture grade plastic Petri dishes and incubated for 24 hrs. After 24 hrs the media was replaced by a layer of 1% agar. Stock solution of 100 mg/ml of reference standard was prepared in sterile phosphate buffered saline (PBS) and tested at 10% (100 mg/ml). 5 μl of reference standard was loaded on to 6 mm sterile Whatman filter paper discs which were placed on the agar layer. Neat topical composition sample was used for testing. Approximately 5 μl of the topical composition sample was loaded on to 6 mm sterile Whatman filter paper discs which were placed on the agar layer. Sterile PBS was used as the negative control. Positive and negative controls were run concurrently. After an exposure of 24 hours to the samples, the assays were terminated by the addition of MTT (3-[4,5-dimethylthiazol-2-yl]-2,5-diphenyltetrazolium bromide; Thiazolyl blue) (Sigma M 5655) and incubated overnight in the dark. The following day, the cells were observed under the microscope and checked for the presence of crystals under the area of sample loading. The sample causing cell death was indicated by a clear zone of inhibition. The colour was allowed to develop overnight and the zone of inhibition was measured. The readings of the test samples were then scored based on comparisons with the positive and negative controls in compliance with the USP (U.S. Pharmacopoeia) grades for the agar diffusion test (Table 2).

Structure (SMILES) | moisture content retained until 8 hours after application (skin; 8 hours after application) [%] | moisture content after application (skin; after application) [%] | Reactivity [1] | Zone of Inhibition, mean per experiment ([1]; sample neat (100% concentration), Expt 1-3, sulphate) | Zone of Inhibition, individual readings ([1]; sample neat (100% concentration), reference standard 10% (100 mg/ml), Expt 1-3, sulphate) | Zone of Inhibition, Mean ± SD of three independent experiments ([1]; sample neat (100% concentration), listed as positive control, sulphate) [cm] | Zone of Inhibition, Mean ± SD of three independent experiments ([1]; sample neat (100% concentration), sulphate) [cm]
C[Si]1(C)O[Si](C)(C)O[Si](C)(C)O[Si](C)(C)O[Si](C)(C)O1 [Cyclopentasiloxane, cyclopentasiloxane] | 21 | 23 | – | – | – | – | –
CCCCCCCCCCCCOS(=O)(=O)[O-].[Na+] [Positive Control, sodium dodecyl sulphate] | – | – | Severe (Zone extends greater than 1.0 cm beyond specimen) | 1.08 cm and 1.14 cm and 1.20 cm | 1.05 cm and 1.03 cm and 1.17 cm and 1.13 cm and 1.07 cm and 1.23 cm and 1.20 cm and 1.18 cm and 1.22 cm | 1.14±0.06 | 1.14 ± 0.06
